{
  "source": "patent US8455460B2",
  "about": "“Cosmetic composition containing one or more compounds of the β-(1,3)-glucuronan or β-(1,3)-glucoglucuronan type” (Greentech, priority 2007, dated 2013)",
  "key": {"[1]": {"test": "clinical study on human volunteers, daily topical application of cream (cellulite, orange-peel skin)", "format": "in vivo", "conditions": "cream containing 3%, daily topical application for 30 days, placebo 27%", "from_the_text": "The orange-peel skin effect is reduced in 53% of the volunteers (against 27% in the group of volunteers treated with a placebo)."}, "[2]": {"test": "chelation and sequestration of cationic ions, investigated by atomic absorption", "format": "physicochemical", "conditions": "Na+, Cu+, Cu2+, Ca2+, Mg2+, Zn2+, with stirring, compounds recovered and washed", "from_the_text": "The β-(1,3)-glucuronan compounds or the mixture of β-(1,3)-glucoglucuronan compounds are polyanionic molecules capable of chelating and of sequestering mono- and divalent cationic ions."}, "human fibroblasts": {"system": "human fibroblasts", "test": "transcriptomic study on human fibroblasts cultivated in vitro in the absence or presence of the compounds", "format": "cell-based", "conditions": "cellular renewal", "from_the_text": "The biological activities of β-(1,3)-glucuronan compounds or of a mixture of β-(1,3)-glucoglucuronan compounds were screened by an original method of molecular biology (transcriptomic technique) and then detected by methodologies used conventionally in cosmetology.\nThis adipokine produced locally in the adipose tissue inhibits the activity of the enzyme lipoprotein lipase (LPL) thus preventing the transfer of fatty acids from the lipoproteins to the adipocytes, thus greatly reducing lipogenesis. At the same time, this adipokine activates the enzyme ATGL (adipose triglyceride lipase), present in the adipocytes, thus greatly increasing lipolysis and the release of fatty acids from the adipocytes.\nIn fact, the transitory induction (under the control of TFPI2 and of PDGFD) of the metalloproteinases (MMP) and the transitory inhibition (under the control of TFPI2) of HAPLN1, permit transitory, localized destabilization of the stressed site (requiring cicatrization) of the extracellular matrix, mainly by catabolic action on the collagen fibers. […]"}, "adipocytes": {"system": "adipocytes", "test": "in-vitro study on adipocytes: density of fatty acids stored as triglycerides in the lipid vacuoles", "format": "cell-based", "conditions": "concentration of 0.5%"}},
  "data": [
    {"substance": "β-(1,3)-D-polyglucuronic acid [β-(1,3)-glucuronan compound]", "values": [
      {"measurement": "volunteers in whom the orange-peel skin effect is reduced", "setting": "[1]", "result": 53, "unit": "%"},
      {"measurement": "chelating and sequestering of mono- and divalent cationic ions", "setting": "[2]", "result": "chelate and sequester"},
      {"measurement": "expression of TFPI2", "setting": "human fibroblasts", "result": "overexpressed"},
      {"measurement": "expression of the genes EGR1, PTGS2, PDGFD, NPTX1", "setting": "human fibroblasts", "result": "overexpression"},
      {"measurement": "decrease in the density of fatty acids stored in the form of triglycerides in the lipid vacuoles of the adipocytes", "setting": "adipocytes", "result": "~25", "unit": "%"}
    ]}
  ]
}
